From patent US20240209355A1, “NUCLEIC ACID BINDING PROTEIN FORMULATIONS AND USES THEREOF” (Spotlight Therapeutics, priority 2020, published 2024)
Several values for one entry are separate records, joined by “and”; a condition that tells them apart may be missing. Equal entries are not always repeated.

Columns and labels:
[1] = system: dsDNA target; assay: In vitro DNA cleavage of TAGE agent RNPs with re-folded or unfolded sgRNA; format: biochemical; details: PBS, relative to Cas9(C80A)-2×NLS
Method: To assess DNA cleavage, 100 nM of each Cas9 RNP was incubated for 30 minutes at 37° C. with 100 nM of a dsDNA target. DNA cleavage was normalized to DNA cleavage achieved through incubation in buffer alone (i.e., untreated RNP). 1 μl of 20 mg/ml proteinase K was added to the reaction and incubated for 15 minutes at 50° C. The quenching reaction was held at 4° C. prior to separation on a Fragment Analyzer capillary electrophoresis (CE) instrument. 2 μl of the reaction was diluted with 22 μl of TE buffer and analyzed by capillary electrophoresis, per the manufacturer's recommendations. Cleavage reactions were run in triplicate, and background was subtracted from the band intensities. Percent cleavage was quantified with the following equation: % cleavage=(total mass cleaved product)/(total mass of substrate). The results are expressed as % cleavage relative to untreated RNP.
Next, the impact of re-folded gRNA on the in vitro DNA cleavage activity of TAGE agent RNPs was assessed.

[2] = system: primary human T cells; assay: Editing by TAGE after pre-incubation of cells with inhibitors, loss of surface CD47 by flow cytometry; format: cell-based; details: 30 min pre-incubation; for editing of primary T cells by TAGE: DMA, EIPA 100 μM, Cyto D 20 μM, Lat A 10 μM, 3 μM TAGE26, 0.35 μM AB27-TAGE26 or AB2-TAGE26; for editing of primary T cells by an antibody TAGE: Dynasore 80 μM
Method: Antibodies were conjugated to Cas9 using the SpyTag2/SpyCatcher system and a guide RNA targeting CD47 was associated with the respective TAGE agents to form RNPs. Primary human T cells were pre-incubated with the indicated drug for 30 minutes. Then, RNPs were added to the cells at the indicated concentration and co-incubated for an additional hour. The cells were washed after one hour to remove inhibitors and RNPs. The percentage of cells that were edited under each condition was measured using a phenotypic readout detecting the loss of surface CD47 by flow cytometry.
Each data point represents a biological replicate. For each group, the horizontal line represents the mean and the error bars represent the standard deviation of the mean. With respect to the descriptions in FIG. 18, NT guide is a TAGE with non-targeting guide RNA; MeOH is methanol (a control for DMA and EIPA; used at 0.5% v/v; DMSO is dimethyl sulfoxide, a control for Cyto D and Lat A (used at 1% v/v); DMA is 5-(N,N-dimethyl)-amiloride, an inhibitor of NHE1 (used at 100 μM); EIPA is 5-(N-ethyl-N-isopropyl)-amiloride, an inhibitor of NHE1, (used at 100 μM); Cyto D is cytochalasin D, an inhibitor of F-actin polymerization (used at 20 μM); and Lat A is latrunculin A, an inhibitor of F-actin polymerization (used at 10 μM).
Antibodies were conjugated to Cas9 using the SpyTag/SpyCatcher system and a guide RNA targeting CD47 was associated with the respective TAGE agents to form an RNP. Primary human T cells were pre-incubated with the indicated drug (nystatin or Dynasore) for 30 minutes. Then, RNPs were added to cells at the indicated concentration and co-incubated for an additional hour. The cells were washed after one hour to remove inhibitors and RNPs. The percentage of cells that were edited under each condition was measured using a phenotypic readout detecting the loss of surface CD47 by flow cytometry. Each data point represents a biological replicate. For each group, the horizontal line represents the mean and the error bars represent the standard deviation of the mean. NT guide stood for TAGE with non-targeting guide RNA. DMSO is dimethylsulfoxide, a control for nystatin and Dynasore, which was used at 2% v/v. Dynasore is an inhibitor of dynamin, which was used at 80 μM. Nystatin was used at 108 μM.

[3] = system: T cells; assay: Ex vivo editing with chloroquine, loss of surface CD47 by flow cytometry; format: cell-based, human; details: chloroquine 10, 30 or 100 μM for 24 hours after 1 hour RNP co-incubation with PBMCs, vs 0 μM
Method: FIG. 9 graphically depicts the results of an ex vivo editing assay in which TAGE agents including Cas9-2×NLS:sgBFP, 4×NLS-Cas9-2×NLS, Cas9-2×NLS-SpyCatcher-4×NLS, or IL-2[-SpyTag]:Cas9-2×NLS-SpyCatcher-4×NLS were co-incubated with primary human T cells and assessed for editing in buffers including different levels of chloroquine (0 μM, 10 μM, 30 μM, or 100 μM). A guide RNA targeting CD47 was associated with the respective TAGE agents to form ribonucleoproteins, and the ribonucleoproteins were co-incubated with T cells to test for editing. Editing was measured using a phenotypic readout measuring the loss of surface CD47 using flow cytometry.
In this example, the impact of chloroquine on ex vivo editing by TAGE agents was assessed. RNP TAGE agents including Cas9-2×NLS:sgBFP, 4×NLS-Cas9-2×NLS, Cas9-2×NLS-SpyCatcher-4×NLS, or IL-2-SpyTag:Cas9-2×NLS-SpyCatcher-4×NLS. A guide RNA targeting CD47 (or a non-targeting control, sgBFP) was associated with the respective TAGE agents to form the ribonucleoproteins. The RNPs were co-incubated with PBMCs for 1 hour followed by incubation with 0 μM chloroquine, 10 μM chloroquine, 30 μM chloroquine, or 100 μM chloroquine for 24 hours. The percentage of T cells that were edited by each TAGE was measured using a phenotypic readout detecting the loss of surface CD47 by flow cytometry.

[4] = system: primary human T cells; assay: Ex vivo editing by co-incubation in buffers with additives, loss of surface CD47 by flow cytometry; format: cell-based; details: for genome editing (percentage of edited T cells): 1 hour, increasing NaCl (185-400 mM) and/or glycerol (1-15% w/v); for combined effect of glycerol and sodium chloride on genome editing: e.g. 300 mM NaCl with 12.5% glycerol; for TAGE editing efficacy: additive in combination with NaCl
Method: In this example, the impact of glycerol and salt on ex vivo editing by TAGE agents was assessed. Ribonucleoproteins were prepared from TAGE agents including 4×NLS-Cas9-2×NLS. A guide RNA targeting CD47 was associated with the respective TAGE agents to form ribonucleoproteins. […] The cells were washed after one hour to remove the additives and RNPs. The percentage of T cells that were edited under each condition was measured using a phenotypic readout detecting the loss of surface CD47 by flow cytometry. Additionally, the levels of live cells per mL 24 hours after co-incubation in the indicated buffer was assessed for each buffer condition.
In this example, the impact of salt and various polyols (e.g., sugar alcohols) or sugar on ex vivo editing by TAGE agents was assessed. Ribonucleoproteins were prepared from TAGE agents including 4×NLS-Cas9-2×NLS. A guide RNA targeting CD47 was associated with the respective TAGE agents to form ribonucleoproteins. […] Buffers having different salt concentrations (185 mM NaCl or 300 mM NaCl) and sugar alcohol or sugar concentrations ([…], 0.8 M, 1.2 M, 1.6 M, 2.0 M, or 2.4 M) were assessed. The cells were washed after one hour to remove additives and RNPs. The percentage of cells that were edited under each condition was measured using a phenotypic readout detecting the loss of surface CD47 by flow cytometry. Additionally, the levels of live cells per mL 24 hours after co-incubation in the indicated buffer was assessed for each buffer condition.
In this example, the impact of a cationic polymer (e.g., protamine) with or without glycerol on ex vivo editing by RNP TAGE agents was assessed. Ribonucleoproteins were prepared from TAGE agents including 4×NLS-Cas9-2×NLS or AsCas12a. A guide RNA targeting CD47 was associated with the respective TAGE agents to form ribonucleoproteins. […] The cells were washed after one hour to remove additives and RNPs. The percentage of T cells that were edited under each condition was measured using a phenotypic readout detecting the loss of surface CD47 by flow cytometry. Additionally, the levels of light scattering at 340 nm was assessed to detect aggregate formation. […]

[5] = system: primary human T cells; assay: Editing by antibody TAGE or CPP-TAGE in T cell media with sugar, sugar alcohol or salt additive, loss of surface CD47 by flow cytometry; format: cell-based
Method: RNPs at the indicated concentration were co-incubated with primary human T cells for 1 hour in buffer including 0.5 M sucrose. The cells were washed after one hour to remove additives and RNPs. The editing percentage under each condition was measured using a phenotypic readout detecting the loss of surface CD47 by flow cytometry.
Five different TAGE agent were tested. […] The cells were washed after one hour to remove additives and RNPs. The percentage of cells that were edited under each condition was measured using a phenotypic readout detecting the loss of surface CD47 by flow cytometry. Each data point represents the mean of biological triplicates, and the error bars represent the standard deviation of the mean.
The cells were washed after one hour to remove additives and RNPs. The percentage of cells that were edited under each condition was measured using a phenotypic readout detecting the loss of surface CD47 by flow cytometry. Each data point represents a biological replicate. […]
RNP at the indicated concentration was co-incubated with primary human T cells for 1 hour in T cell media with no additive (Baseline) or in T cell media with 0.5 M sucrose. […] The percentage of cells that were edited under each condition was measured using a phenotypic readout detecting the loss of surface CD47 by flow cytometry. […]

[6] = Light scattering at 340 nm to detect aggregate formation with protamine; format: physicochemical; details: protamine in buffer
Method: In this example, the impact of a cationic polymer (e.g., protamine) with or without glycerol on ex vivo editing by RNP TAGE agents was assessed. Ribonucleoproteins were prepared from TAGE agents including 4×NLS-Cas9-2×NLS or AsCas12a. A guide RNA targeting CD47 was associated with the respective TAGE agents to form ribonucleoproteins. […] The cells were washed after one hour to remove additives and RNPs. The percentage of T cells that were edited under each condition was measured using a phenotypic readout detecting the loss of surface CD47 by flow cytometry. Additionally, the levels of light scattering at 340 nm was assessed to detect aggregate formation.

4×NLS-Cas9(C80A)-2×NLS: TAGE agent: Cas9(C80A) with four N-terminal and two C-terminal NLS
DNA cleavage activity [1]: reduced activity in PBS

C=C1[C@@H](C)[C@H]2[C@H](Cc3ccccc3)NC(=O)[C@]23[C@H](OC(C)=O)/C=C/[C@@](C)(O)C(=O)[C@@H](C)C/C=C/[C@H]3[C@@H]1O [Cyto D, cytochalasin D]
editing of primary T cells by TAGE [2]: decreased

CN(C)c1nc(N)c(C(=O)NC(=N)N)nc1Cl [DMA, 5-(N,N-dimethyl)-amiloride]
editing of primary T cells by TAGE [2]: increased

CCN(c1nc(N)c(C(=O)N=C(N)N)nc1Cl)C(C)C [EIPA, 5-(N-ethyl-N-isopropyl)-amiloride]
editing of primary T cells by TAGE [2]: increased

C/C1=C/C(=O)O[C@@H]2C[C@@H](CC[C@H](C)/C=C\C=C\CC1)O[C@@](O)([C@@H]1CSC(=O)N1)C2 [Lat A, latrunculin A]
editing of primary T cells by TAGE [2]: decreased

CCN(CC)CCCC(C)Nc1ccnc2cc(Cl)ccc12 (stereo not shown) [chloroquine]
editing of T cells by TAGE RNPs [3]: increased editing of T cells

O=C(N/N=C/c1ccc(O)c(O)c1)c1cc2ccccc2cc1O [dynasore, Dynasore]
editing of primary T cells by an antibody TAGE ([2]; nystatin 108 μM): not increased

OCC(O)CO [glycerol]
genome editing (percentage of edited T cells) ([4]; 3.75 μM 4×NLS-Cas9-2×NLS RNP): increased genome editing in cells | combined effect of glycerol and sodium chloride on genome editing ([4]; 3.75 μM 4×NLS-Cas9-2×NLS RNP): synergistic effect on genome editing | TAGE editing efficacy ([4]; 3.75 μM 4×NLS-Cas9-2×NLS RNP): can increase TAGE editing efficacy | glycerol concentration at peak editing ex vivo ([4]; human T cells, depending on the TAGE and the salt concentration): 7-10% and 15-16%

C[C@@H]1[C@H](O)[C@@H](C)/C=C/C=C/CC/C=C/C=C/C=C/C=C/C(O[C@H]2O[C@H](C)[C@@H](O)[C@H](N)[C@@H]2O)CC2O[C@](O)(CC(O)C(O)CCC(O)CC(O)CC(O)CC(=O)O[C@H]1C)CC(O)C2C(=O)O (stereo partly shown) [nystatin]
editing by TAGE containing a non-targeting antibody (AB27-TAGE26) ([2]; nystatin 108 μM): did not increase editing | editing of primary T cells by an antibody TAGE ([2]; nystatin 108 μM): increased

[Cl-].[Na+] [sodium chloride]
genome editing (percentage of edited T cells) ([4]; 3.75 μM 4×NLS-Cas9-2×NLS RNP): increased genome editing in cells | combined effect of glycerol and sodium chloride on genome editing ([4]; 3.75 μM 4×NLS-Cas9-2×NLS RNP): synergistic effect on genome editing

OC[C@H]1O[C@@](CO)(O[C@H]2O[C@H](CO)[C@@H](O)[C@H](O)[C@H]2O)[C@@H](O)[C@@H]1O [sucrose]
TAGE editing efficacy ([4]; 3.75 μM 4×NLS-Cas9-2×NLS RNP): can increase TAGE editing efficacy | lowest TAGE concentration at which editing is enabled ([5]; 0.5 M sucrose): 0.7 nM | effect of additive on editing ([5]; 0.5 M sucrose as formulation additive): improves editing

OC[C@@H](O)[C@H](O)[C@@H](O)CO [xylitol]
percentage of edited cells ([4]; 3.75 μM 4×NLS-Cas9-2×NLS RNP, 300 mM NaCl and ≥1 M xylitol): over 50% | TAGE editing efficacy ([4]; 3.75 μM 4×NLS-Cas9-2×NLS RNP): can increase TAGE editing efficacy

poly-glutamic acid [PGA]
editing by co-incubation ([4]; 3.75 μM Cas9 or AsCas12a RNP, PGA 1500-5500 Da or 15,000 Da, also at lower concentrations): inhibited editing by co-incubation

protamine
aggregation of Cas12a (340 nm light scattering) [6]: did not cause appreciable Cas12a aggregation | aggregation of 4×NLS-Cas9-2×NLS (340 nm light scattering) ([6]; low glycerol concentrations): caused aggregation | editing by Cas12a ([4]; protamine in buffer): limited benefits for Cas12a editing | editing by 4×NLS-Cas9-2×NLS ([4]; protamine in buffer, low glycerol concentrations): increased editing
